Source: ChEMBL document CHEMBL1146323, “Design, synthesis, and evaluation of efflux substrate-metal chelator conjugates as potential antimicrobial agents” (2007)
≈ marks a conversion by molar mass, not a printed value. Calls of active or inactive are those of the source. No cut-off for these calls is given here.

Columns and labels:
Bacillus subtilis = assay: Antimicrobial activity against Bacillus subtilis; format: functional
Escherichia coli [1] = assay: Antimicrobial activity against Escherichia coli MC4100 assessed as inhibition zone at >2 mg/mL; format: functional, organism-based
Escherichia coli [2] = assay: Antimicrobial activity against Escherichia coli MC4100; format: functional

| SMILES | MIC (Bacillus subtilis) [µg/mL] | MIC (Escherichia coli [2]) [µg/mL] | Activity (Escherichia coli [1]) |
| --- | --- | --- | --- |
| O=C(CCN1c2ccccc2Sc2ccccc21)NCc1ccc(CN2CCOCCOCCOCCOCC2)cc1 | 2000 (≈ 3380 µM) |  | inactive |
| O=C(CCCCCN1c2ccccc2Sc2ccccc21)OCc1ccc(-c2cc(-c3ccccn3)nc(-c3ccccn3)c2)cc1 | 500 (≈ 788 µM) |  | inactive |
| O=C(CCN1c2ccccc2Sc2ccc(C(F)(F)F)cc21)NCc1ccc(CN2CCOCCOCCOCCOCC2)cc1 | 500 (≈ 758 µM) |  | inactive |
| O=C(CCCCCN1c2ccccc2Sc2ccccc21)NCc1ccc(CN2CCOCCOCCOCCOCC2)cc1 | 60 (≈ 94.7 µM) |  | inactive |
| O=C(CCN1c2ccccc2Sc2ccccc21)OCc1ccc(-c2cc(-c3ccccn3)nc(-c3ccccn3)c2)cc1 |  |  | inactive |
| c1ccc2c(c1)Nc1ccccc1S2 [PHENOTHIAZINE] | 500 (≈ 2510 µM) |  |  |

Continued, in another order:

| MIC (Bacillus subtilis) [µg/mL] | MIC (Escherichia coli [2]) [µg/mL] | SMILES | Activity (Escherichia coli [1]) |
| --- | --- | --- | --- |
| 25 (≈ 71.5 µM) |  | CC1(C)S[C@@H]2[C@H](NC(=O)[C@H](N)c3ccccc3)C(=O)N2[C@H]1C(=O)O [AMPICILLIN] |  |
| < 3 |  | NC[C@H]1O[C@H](O[C@H]2[C@H](O)[C@@H](O[C@H]3O[C@H](CO)[C@@H](O)[C@H](N)[C@H]3O)[C@H](N)C[C@@H]2N)[C@H](O)[C@@H](O)[C@@H]1O [KANAMYCIN] |  |
| 16 (≈ 25 µM) |  | O=C(CCN1c2ccccc2Sc2ccc(C(F)(F)F)cc21)NCc1ccc(CN(Cc2ccccn2)Cc2ccccn2)cc1 | inactive |
| 7.8 (≈ 12.7 µM) |  | O=C(CCCCCN1c2ccccc2Sc2ccccc21)NCc1ccc(CN(Cc2ccccn2)Cc2ccccn2)cc1 | inactive |
| 30 (≈ 52.5 µM) |  | O=C(CCN1c2ccccc2Sc2ccccc21)NCc1ccc(CN(Cc2ccccn2)Cc2ccccn2)cc1 | inactive |
| 7.8 (≈ 14 µM) | 2000 (≈ 3580 µM) | O=C(CN1c2ccccc2Sc2ccccc21)NCc1ccc(CN2CCCNCCNCCCNCC2)cc1 |  |
